In ChEMBL document CHEMBL5653615 (J Biol Chem, 2013):
One block for each compound: values may come before it.

Assays:
[1] = target: Cyclin-dependent kinase 5/CDK5 activator 1 (Homo sapiens) (UniProt Q00535+Q15078); assay: Inhibition of human CDK5/p25 at 500 nM by HotSpot assay relative to control; type: protein-complex assay
[2] = target: Glycogen synthase kinase-3 alpha (Homo sapiens) (UniProt P49840); assay: Inhibition of human GSK3a at 500 nM by HotSpot assay relative to control
[3] = target: Fibroblast growth factor receptor 1 (Homo sapiens) (UniProt P11362); assay: Inhibition of human FGFR1 at 18.6 nM by HotSpot assay relative to control
[4] = target: Mitogen-activated protein kinase kinase kinase kinase 4 (Homo sapiens) (UniProt O95819); assay: Inhibition of human HGK at 18.6 nM by HotSpot assay relative to control
[5] = target: Serine/threonine-protein kinase 24 (Homo sapiens) (UniProt Q9Y6E0); assay: Inhibition of human STK24 at 18.6 nM by HotSpot assay relative to control
Sequence of Serine/threonine-protein kinase 24 (Homo sapiens) (Q9Y6E0 whole entry, looked up): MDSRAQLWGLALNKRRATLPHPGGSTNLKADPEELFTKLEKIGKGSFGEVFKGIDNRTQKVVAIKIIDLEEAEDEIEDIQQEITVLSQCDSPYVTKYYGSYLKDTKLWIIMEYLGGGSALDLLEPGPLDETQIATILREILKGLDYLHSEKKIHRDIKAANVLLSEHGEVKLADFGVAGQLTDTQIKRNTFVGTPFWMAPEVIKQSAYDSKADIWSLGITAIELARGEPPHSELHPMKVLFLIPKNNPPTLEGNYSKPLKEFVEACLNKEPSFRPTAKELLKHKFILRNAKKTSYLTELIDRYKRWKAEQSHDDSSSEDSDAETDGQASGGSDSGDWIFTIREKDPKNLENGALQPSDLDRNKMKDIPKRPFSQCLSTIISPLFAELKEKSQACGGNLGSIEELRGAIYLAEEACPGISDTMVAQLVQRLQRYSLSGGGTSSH

[6] = target: Serine/threonine-protein kinase PAK 3 (Homo sapiens) (UniProt O75914); assay: Inhibition of human PAK3 at 18.6 nM by HotSpot assay relative to control
Sequence of Serine/threonine-protein kinase PAK 3 (Homo sapiens) (O75914 whole entry, looked up): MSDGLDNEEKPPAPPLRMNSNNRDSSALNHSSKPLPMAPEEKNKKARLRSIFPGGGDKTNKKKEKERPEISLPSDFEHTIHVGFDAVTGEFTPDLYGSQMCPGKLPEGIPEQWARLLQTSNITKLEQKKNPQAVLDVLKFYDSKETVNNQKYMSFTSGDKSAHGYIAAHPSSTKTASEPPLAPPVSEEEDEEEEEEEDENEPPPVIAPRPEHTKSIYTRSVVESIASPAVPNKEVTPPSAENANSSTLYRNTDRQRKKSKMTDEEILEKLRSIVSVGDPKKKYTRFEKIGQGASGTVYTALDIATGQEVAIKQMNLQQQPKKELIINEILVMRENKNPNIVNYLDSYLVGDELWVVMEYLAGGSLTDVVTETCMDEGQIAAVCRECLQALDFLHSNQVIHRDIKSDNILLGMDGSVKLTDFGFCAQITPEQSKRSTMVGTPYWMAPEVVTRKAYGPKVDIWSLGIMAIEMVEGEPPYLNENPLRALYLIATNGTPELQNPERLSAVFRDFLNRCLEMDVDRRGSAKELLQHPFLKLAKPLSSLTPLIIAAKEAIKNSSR

[7] = target: Ribosomal protein S6 kinase alpha-2 (Homo sapiens) (UniProt Q15349); assay: Inhibition of human RSK3 at 18.6 nM by HotSpot assay relative to control
Sequence of Ribosomal protein S6 kinase alpha-2 (Homo sapiens) (Q15349 whole entry): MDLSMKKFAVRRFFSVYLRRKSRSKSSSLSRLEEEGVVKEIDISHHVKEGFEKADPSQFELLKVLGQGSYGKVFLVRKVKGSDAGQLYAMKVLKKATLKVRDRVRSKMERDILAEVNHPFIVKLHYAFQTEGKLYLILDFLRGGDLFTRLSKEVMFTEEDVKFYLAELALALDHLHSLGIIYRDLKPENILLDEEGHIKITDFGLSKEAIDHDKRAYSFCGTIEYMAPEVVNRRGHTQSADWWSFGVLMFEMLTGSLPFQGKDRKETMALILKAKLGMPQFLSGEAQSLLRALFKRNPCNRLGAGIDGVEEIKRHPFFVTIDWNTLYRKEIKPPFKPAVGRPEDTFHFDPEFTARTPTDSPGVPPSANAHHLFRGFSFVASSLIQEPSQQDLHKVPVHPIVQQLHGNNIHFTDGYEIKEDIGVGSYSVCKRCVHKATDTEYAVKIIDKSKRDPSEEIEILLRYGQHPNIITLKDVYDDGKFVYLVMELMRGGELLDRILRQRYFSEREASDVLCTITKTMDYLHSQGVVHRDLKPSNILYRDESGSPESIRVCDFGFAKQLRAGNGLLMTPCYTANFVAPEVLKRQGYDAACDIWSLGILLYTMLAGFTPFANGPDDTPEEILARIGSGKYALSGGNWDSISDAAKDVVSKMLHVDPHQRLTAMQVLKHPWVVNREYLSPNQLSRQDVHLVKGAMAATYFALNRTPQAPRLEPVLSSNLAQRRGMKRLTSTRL

[8] = target: Ephrin type-A receptor 5 (Homo sapiens) (UniProt P54756); assay: Inhibition of human EPHA5 at 1.82 nM by HotSpot assay relative to control
Sequence of Ephrin type-A receptor 5 (Homo sapiens) (P54756 whole entry): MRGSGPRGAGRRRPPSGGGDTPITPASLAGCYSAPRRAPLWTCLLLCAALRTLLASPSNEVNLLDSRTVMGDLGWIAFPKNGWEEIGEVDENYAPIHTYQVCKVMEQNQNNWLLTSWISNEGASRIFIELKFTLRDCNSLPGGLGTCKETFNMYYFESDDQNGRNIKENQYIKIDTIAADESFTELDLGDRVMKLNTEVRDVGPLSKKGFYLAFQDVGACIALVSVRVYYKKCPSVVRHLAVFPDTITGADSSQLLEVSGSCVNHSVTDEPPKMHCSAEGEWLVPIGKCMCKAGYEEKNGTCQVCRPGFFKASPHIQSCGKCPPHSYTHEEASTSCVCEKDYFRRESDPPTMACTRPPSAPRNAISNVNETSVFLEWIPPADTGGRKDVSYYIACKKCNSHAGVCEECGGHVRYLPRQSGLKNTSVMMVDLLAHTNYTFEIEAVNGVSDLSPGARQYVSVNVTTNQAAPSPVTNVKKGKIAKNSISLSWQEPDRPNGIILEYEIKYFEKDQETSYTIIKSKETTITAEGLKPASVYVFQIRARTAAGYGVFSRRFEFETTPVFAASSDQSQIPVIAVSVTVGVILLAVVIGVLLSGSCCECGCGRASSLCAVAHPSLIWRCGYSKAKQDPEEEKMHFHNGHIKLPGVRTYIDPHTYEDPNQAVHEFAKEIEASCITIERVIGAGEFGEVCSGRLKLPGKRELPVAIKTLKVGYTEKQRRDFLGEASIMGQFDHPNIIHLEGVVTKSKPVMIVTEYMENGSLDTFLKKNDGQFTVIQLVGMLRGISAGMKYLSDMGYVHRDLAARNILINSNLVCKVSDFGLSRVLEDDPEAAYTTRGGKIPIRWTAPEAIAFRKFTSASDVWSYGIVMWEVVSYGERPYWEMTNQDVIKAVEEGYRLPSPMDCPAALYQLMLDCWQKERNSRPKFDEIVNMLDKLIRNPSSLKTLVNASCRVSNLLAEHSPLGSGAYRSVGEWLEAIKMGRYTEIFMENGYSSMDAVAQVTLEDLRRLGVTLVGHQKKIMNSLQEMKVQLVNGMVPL

[9] = target: Glycogen synthase kinase-3 beta (Homo sapiens) (UniProt P49841); assay: Inhibition of human GSK3b at 1.82 nM by HotSpot assay relative to control
[10] = target: Interleukin-1 receptor-associated kinase 1 (Homo sapiens) (UniProt P51617); assay: Inhibition of human IRAK1 at 1.82 nM by HotSpot assay relative to control
Sequence of Interleukin-1 receptor-associated kinase 1 (Homo sapiens) (P51617 whole entry, looked up): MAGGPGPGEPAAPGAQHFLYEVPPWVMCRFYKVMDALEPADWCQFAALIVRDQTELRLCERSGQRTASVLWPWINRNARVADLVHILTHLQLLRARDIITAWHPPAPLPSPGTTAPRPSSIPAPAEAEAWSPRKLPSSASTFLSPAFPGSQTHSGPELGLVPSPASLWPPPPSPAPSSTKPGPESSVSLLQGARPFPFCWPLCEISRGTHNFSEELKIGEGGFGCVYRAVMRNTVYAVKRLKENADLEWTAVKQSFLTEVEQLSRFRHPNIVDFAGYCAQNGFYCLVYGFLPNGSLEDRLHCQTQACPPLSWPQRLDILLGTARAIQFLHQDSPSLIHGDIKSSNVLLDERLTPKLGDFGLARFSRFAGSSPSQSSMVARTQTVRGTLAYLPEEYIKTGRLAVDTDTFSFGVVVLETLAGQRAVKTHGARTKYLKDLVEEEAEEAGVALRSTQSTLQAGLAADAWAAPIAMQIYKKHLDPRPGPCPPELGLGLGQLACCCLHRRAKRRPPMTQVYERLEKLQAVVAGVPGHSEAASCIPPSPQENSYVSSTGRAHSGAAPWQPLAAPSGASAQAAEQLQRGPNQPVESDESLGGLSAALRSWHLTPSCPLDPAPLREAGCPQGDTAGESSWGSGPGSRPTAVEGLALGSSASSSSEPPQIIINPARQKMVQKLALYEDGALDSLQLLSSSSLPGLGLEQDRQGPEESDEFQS

[11] = target: MAP kinase-interacting serine/threonine-protein kinase 1 (Homo sapiens) (UniProt Q9BUB5); assay: Inhibition of human MNK1 at 1.82 nM by HotSpot assay relative to control
Sequence of MAP kinase-interacting serine/threonine-protein kinase 1 (Homo sapiens) (Q9BUB5 whole entry, looked up): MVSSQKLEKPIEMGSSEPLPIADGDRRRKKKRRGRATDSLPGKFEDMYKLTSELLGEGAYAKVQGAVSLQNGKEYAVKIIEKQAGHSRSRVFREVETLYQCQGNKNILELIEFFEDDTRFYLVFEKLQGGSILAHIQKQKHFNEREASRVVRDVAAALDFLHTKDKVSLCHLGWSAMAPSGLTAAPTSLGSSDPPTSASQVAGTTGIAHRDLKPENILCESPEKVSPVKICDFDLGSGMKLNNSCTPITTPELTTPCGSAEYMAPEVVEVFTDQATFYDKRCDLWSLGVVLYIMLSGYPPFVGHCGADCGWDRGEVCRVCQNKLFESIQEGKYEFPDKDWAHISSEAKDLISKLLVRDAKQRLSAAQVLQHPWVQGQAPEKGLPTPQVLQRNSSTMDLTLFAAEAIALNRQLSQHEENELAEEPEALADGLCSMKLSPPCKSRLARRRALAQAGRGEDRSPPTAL

[12] = target: T1, Serine/threonine-protein kinase Nek3 (Homo sapiens) (UniProt P51956); assay: Inhibition of human NEK3 at 1.82 nM by HotSpot assay relative to control
T1 sequence (whole entry): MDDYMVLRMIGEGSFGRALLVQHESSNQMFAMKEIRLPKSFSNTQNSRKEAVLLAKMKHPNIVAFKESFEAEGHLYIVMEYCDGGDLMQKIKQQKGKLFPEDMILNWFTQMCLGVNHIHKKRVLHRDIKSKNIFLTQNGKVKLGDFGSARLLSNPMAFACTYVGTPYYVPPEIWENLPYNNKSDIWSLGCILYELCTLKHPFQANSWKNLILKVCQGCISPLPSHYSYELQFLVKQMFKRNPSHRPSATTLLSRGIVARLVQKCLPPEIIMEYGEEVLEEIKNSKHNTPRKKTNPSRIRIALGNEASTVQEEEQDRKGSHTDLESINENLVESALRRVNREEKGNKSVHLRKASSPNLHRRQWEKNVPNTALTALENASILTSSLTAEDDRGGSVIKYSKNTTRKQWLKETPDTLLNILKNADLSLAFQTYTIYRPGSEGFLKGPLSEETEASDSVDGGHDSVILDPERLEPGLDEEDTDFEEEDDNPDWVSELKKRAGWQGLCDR

[13] = target: T2, cAMP-dependent protein kinase catalytic subunit PRKX (Homo sapiens) (UniProt P51817); assay: Inhibition of human PRKX at 1.82 nM by HotSpot assay relative to control
T2 sequence (whole entry): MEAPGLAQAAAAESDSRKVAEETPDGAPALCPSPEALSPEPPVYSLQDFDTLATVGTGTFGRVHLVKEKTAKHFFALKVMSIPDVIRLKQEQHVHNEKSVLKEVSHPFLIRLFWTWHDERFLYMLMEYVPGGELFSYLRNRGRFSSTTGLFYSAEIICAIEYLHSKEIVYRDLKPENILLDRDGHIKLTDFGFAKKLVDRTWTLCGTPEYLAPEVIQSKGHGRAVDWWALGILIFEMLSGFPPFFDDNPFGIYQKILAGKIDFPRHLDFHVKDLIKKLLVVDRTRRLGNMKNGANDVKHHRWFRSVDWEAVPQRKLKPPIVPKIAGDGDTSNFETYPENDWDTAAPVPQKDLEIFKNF

[14] = target: T3, Serine/threonine-protein kinase TBK1 (Homo sapiens) (UniProt Q9UHD2); assay: Inhibition of human TBK1 at 1.82 nM by HotSpot assay relative to control
T3 sequence (whole entry): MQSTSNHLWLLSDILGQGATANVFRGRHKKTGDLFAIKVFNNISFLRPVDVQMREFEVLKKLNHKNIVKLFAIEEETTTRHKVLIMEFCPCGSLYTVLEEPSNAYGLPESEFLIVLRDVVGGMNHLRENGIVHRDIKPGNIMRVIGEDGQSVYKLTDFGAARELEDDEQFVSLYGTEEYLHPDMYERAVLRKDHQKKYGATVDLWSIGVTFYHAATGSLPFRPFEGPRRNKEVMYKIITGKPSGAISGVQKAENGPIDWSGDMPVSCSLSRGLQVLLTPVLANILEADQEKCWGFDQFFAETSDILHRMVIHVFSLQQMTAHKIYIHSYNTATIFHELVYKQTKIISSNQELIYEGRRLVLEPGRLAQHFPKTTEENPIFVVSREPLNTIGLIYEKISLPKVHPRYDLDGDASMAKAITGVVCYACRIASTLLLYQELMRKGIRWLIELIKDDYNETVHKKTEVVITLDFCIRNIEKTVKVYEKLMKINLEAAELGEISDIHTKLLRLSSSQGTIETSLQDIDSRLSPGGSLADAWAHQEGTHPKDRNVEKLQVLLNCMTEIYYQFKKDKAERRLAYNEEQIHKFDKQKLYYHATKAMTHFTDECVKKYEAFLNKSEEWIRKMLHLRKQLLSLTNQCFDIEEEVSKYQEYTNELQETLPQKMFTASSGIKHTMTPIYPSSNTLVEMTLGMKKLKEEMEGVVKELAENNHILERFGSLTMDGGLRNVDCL

Sequence of Glycogen synthase kinase-3 alpha (Homo sapiens) (P49840 2-483 limits assumed): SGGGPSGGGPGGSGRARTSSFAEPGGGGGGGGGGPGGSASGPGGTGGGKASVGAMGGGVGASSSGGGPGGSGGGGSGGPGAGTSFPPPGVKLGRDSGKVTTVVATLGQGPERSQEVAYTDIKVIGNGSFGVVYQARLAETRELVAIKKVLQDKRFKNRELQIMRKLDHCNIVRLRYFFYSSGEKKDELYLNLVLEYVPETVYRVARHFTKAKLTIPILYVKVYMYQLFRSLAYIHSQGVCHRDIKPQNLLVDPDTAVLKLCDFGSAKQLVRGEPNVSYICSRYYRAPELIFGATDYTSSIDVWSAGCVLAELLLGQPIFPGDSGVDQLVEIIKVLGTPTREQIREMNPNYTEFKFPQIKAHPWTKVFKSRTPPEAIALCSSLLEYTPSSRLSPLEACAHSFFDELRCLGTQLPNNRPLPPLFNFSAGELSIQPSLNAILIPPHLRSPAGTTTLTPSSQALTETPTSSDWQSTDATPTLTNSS
Sequence of Cyclin-dependent kinase 5/CDK5 activator 1 (Homo sapiens) (Q00535 whole entry): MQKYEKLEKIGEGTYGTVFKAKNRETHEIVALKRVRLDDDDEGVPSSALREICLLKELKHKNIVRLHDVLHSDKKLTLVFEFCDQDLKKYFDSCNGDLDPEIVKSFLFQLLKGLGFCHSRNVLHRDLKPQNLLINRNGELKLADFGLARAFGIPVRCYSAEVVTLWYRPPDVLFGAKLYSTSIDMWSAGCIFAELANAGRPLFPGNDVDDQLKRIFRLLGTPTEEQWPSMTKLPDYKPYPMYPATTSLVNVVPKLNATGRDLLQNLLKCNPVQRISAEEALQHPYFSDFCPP
Sequence of Cyclin-dependent kinase 5/CDK5 activator 1 (Homo sapiens) (Q15078 99-307 partner limits assumed): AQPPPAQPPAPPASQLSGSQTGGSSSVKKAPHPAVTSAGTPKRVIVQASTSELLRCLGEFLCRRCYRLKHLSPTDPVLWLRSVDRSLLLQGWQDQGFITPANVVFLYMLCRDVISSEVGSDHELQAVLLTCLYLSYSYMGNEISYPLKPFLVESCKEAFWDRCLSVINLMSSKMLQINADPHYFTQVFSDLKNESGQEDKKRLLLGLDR

SMILES: Oc1n[nH]c2nnc(-c3c(-c4ccccc4)nn4ccccc34)cc12
inhibition [1]: 1.29% | inhibition [2]: -1.18%

inhibition [3]: -8.13% | inhibition [4]: -9.59% | inhibition [5]: 3.3% | inhibition [6]: 2.16% | inhibition [7]: -2.23%
SMILES: C[C@]1(O)C[C@@H](c2nc(-c3ccc4ccc(-c5ccccc5)nc4c3)c3c(N)nccn32)C1

inhibition [8]: -1.69% | inhibition [9]: 34.6% | inhibition [10]: -7.77% | inhibition [11]: 5.01% | inhibition [12]: 1.63% | inhibition [13]: 0.19% | inhibition [14]: 7.68%
SMILES: C[C@@]1(C(=O)Nc2ccc(F)nc2)CCCN1c1nc(Nc2cc(C3CC3)n[nH]2)c2cccn2n1

SMILES: Nc1n[nH]c2nnc(-c3c(-c4ccccc4)nn4ccccc34)cc12
inhibition [1]: -0.57% | inhibition [2]: 18.9%
